# Patent US6355799B1, “Substituted benzene compounds, process for their preparation, and herbicidal and defoliant compositions containing them” (ISK Americas Incorporated, priority 1997, dated 2002)
# Experiments:
# Type in all cases: in vivo
# [1] = system: redroot pigweed (Amaranthus retroflexus, AMARE); experiment: Pre-emerge test, greenhouse herbicide activity screening; conditions: for Pre-emerge Herbicidal Activity AMARE: phytotoxicity rating 0-100, 14 days after application; for phytotoxicity rating AMARE: pre-emerge, 14 days after application, scale 0-100
# Procedure, shortened: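 Visual ratings on a 0-100 scale (0 no damage, 100 all plants dead) were taken at 14 days after treatment. Rates of 15-1000 g ai/ha in acetone, 187 l/ha, were sprayed onto soil one day after planting (pre-emerge) or onto 2-3 leaf plants with 0.25% v/v surfactant (post-emerge).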
# [2] = system: barnyardgrass (Echinochloa crus-galli, ECHCG); experiment: as above; conditions: for Pre-emerge Herbicidal Activity ECHCG: phytotoxicity rating 0-100, 14 days after application; for phytotoxicity rating ECHCG: pre-emerge, 14 days after application, scale 0-100
# Source text: (§1) A standard greenhouse herbicide activity screening system was used to evaluate the herbicidal efficacy and crop safety of these test compounds. Seven broadleaf weed species including redroot pigweed (Amaranthus retroflexus, AMARE, velvetleaf (Abutilon theophrasti, ABUTH), sicklepod (Cassia obtusifolia, CASOB), ivyleaf morningglory (Ipomoea hederacea, IPOHE), lambsquarters (Chenopodium album, CHEAL), common ragweed (Ambrosia artemisizfolia L., AMBEL), and cocklebur (Xanthium strumarium, XANST) were used as test species. Four grass weed species including green foxtail (Setaria viridis, SETVI), barnyardgrass (Echinochloa crus-galli, ECHCG), johnsongrass (Sorghum halepense, SORHA), and large crabgrass (Digitaria sanguinalis, DIGSA) were also used. In addition, three crop species, field corn (Zea mays L., var. Dekalb 535, CORN), soybean (Glycine max L., var. Pella 86, SOY), and is upland rice (Oryza sp., var. Tebonnet, RICE) were included.
# (§2) All plants were grown in 10 cm square plastic pots which were filled with a sandy loam soil mix. For pre-emerge tests, seeds were planted one day prior to application of the test compounds. For post-emerge tests, seeds were planted 8-21 days prior to the test to allow emergence and good foliage development prior to application of the test substances. At the time of the post-emerge application, plants of all species were usually at the 2-3 leaf stage of development.
# (§3) All test compounds Were dissolved in acetone and applied to the test units in a volume of 187 l /ha. Test materials were applied at rates ranging from 15 g ai/ha to 1000 g ai/ha using a track sprayer equipped with a TJ8001E even flow flat fan spray nozzle. Plants were arranged on a shelf so that the top of the canopy (post-emerge) or top of the soil surface (pre-emerge) was 40-45 cm below the nozzle. Pressurized air was used to force the test solution through the nozzle as it was mechanically advanced (via electrically driven chain drive) over the top of all test plants/pots. This application simulates a typical commercial field herbicide application.
# (§4) In the post-emerge test, a commercial non-ionic surfactant was also included (0.25% v/v) to enhance wetting of the leaf surfaces of target plants. Immediately after application, test units of the pre-emerge applications were watered at the soil surface to incorporate the test materials. Subsequently, these test units were bottom-watered. Post-emerge test units were always bottom-watered.
# (§5) At 14 days after application of the test materials, phytotoxicity ratings were recorded. A rating scale of 0-100 was used as previously described in Research Methods in Weed Science, 2nd edition, B. Truelove, Ed., Southern Weed Science Society, Auburn University, Auburn, Ala. 1977. Briefly, “0” corresponds to no damage and “100” corresponds to complete death of all plants in the test unit. This scale was used both to determine efficacy against weed species and damage to crop species. Herbicide activity data for various compounds of this invention, which are shown by compound No. in Tables 1-8, are shown in Tables 11 and 12.
# [3] = system: green foxtail (Setaria viridis, SETVI); experiment: as above; conditions: for Pre-emerge Herbicidal Activity SETVI: phytotoxicity rating 0-100, 14 days after application; for phytotoxicity rating SETVI: pre-emerge, 14 days after application, scale 0-100
# Source text: as §1, §2, §3, §4, §5
# [4] = system: ivyleaf morningglory (Ipomoea hederacea, IPOHE); experiment: as above; conditions: for Pre-emerge Herbicidal Activity IPOHE: phytotoxicity rating 0-100, 14 days after application; for phytotoxicity rating IPOHE: pre-emerge, 14 days after application, scale 0-100
# Source text: as §1, §2, §3, §4, §5
# [5] = system: lambsquarters (Chenopodium album, CHEAL); experiment: as above; conditions: for Pre-emerge Herbicidal Activity CHEAL: phytotoxicity rating 0-100, 14 days after application; for phytotoxicity rating CHEAL: pre-emerge, 14 days after application, scale 0-100
# Source text: as §1, §2, §3, §4, §5
# [6] = system: large crabgrass (Digitaria sanguinalis, DIGSA); experiment: as above; conditions: for Pre-emerge Herbicidal Activity DIGSA: phytotoxicity rating 0-100, 14 days after application; for phytotoxicity rating DIGSA: pre-emerge, 14 days after application, scale 0-100
# Source text: as §1, §2, §3, §4, §5
# [7] = system: sicklepod (Cassia obtusifolia, CASOB); experiment: as above; conditions: for Pre-emerge Herbicidal Activity CASOB: phytotoxicity rating 0-100, 14 days after application; for phytotoxicity rating CASOB: pre-emerge, 14 days after application, scale 0-100
# Source text: as §1, §2, §3, §4, §5
# [8] = system: velvetleaf (Abutilon theophrasti, ABUTH); experiment: as above; conditions: for Pre-emerge Herbicidal Activity ABUTH: phytotoxicity rating 0-100, 14 days after application; for phytotoxicity rating ABUTH: pre-emerge, 14 days after application, scale 0-100
# Source text: as §1, §2, §3, §4, §5
# [9] = system: field corn (Zea mays L., var. Dekalb 535, CORN); experiment: Pre-emerge test, crop safety; conditions: for Pre-emerge Herbicidal Activity CORN: crop damage rating 0-100, 14 days after application; for phytotoxicity rating CORN (crop damage): pre-emerge, 14 days after application, scale 0-100
# Source text: as §1, §2, §3, §4, §5
# [10] = system: upland rice (Oryza sp., var. Tebonnet, RICE); experiment: Pre-emerge test, crop safety; conditions: for Pre-emerge Herbicidal Activity RICE: crop damage rating 0-100, 14 days after application; for phytotoxicity rating RICE (crop damage): pre-emerge, 14 days after application, scale 0-100
# Source text: as §1, §2, §3, §4, §5
# [11] = system: barnyardgrass (Echinochloa crus-galli, ECHCG); experiment: Post-emerge test, greenhouse herbicide activity screening; conditions: post-emerge, 14 days after application, rating scale 0-100
# Source text: as §1, §2, §3, §4, §5
# [12] = system: green foxtail (Setaria viridis, SETVI); experiment: as above; conditions: post-emerge, 14 days after application, rating scale 0-100
# Source text: as §1, §2, §3, §4, §5
# [13] = system: ivyleaf morningglory (Ipomoea hederacea, IPOHE); experiment: as above; conditions: post-emerge, 14 days after application, rating scale 0-100
# Source text: as §1, §2, §3, §4, §5
# [14] = system: lambsquarters (Chenopodium album, CHEAL); experiment: as above; conditions: post-emerge, 14 days after application, rating scale 0-100
# Source text: as §1, §2, §3, §4, §5
# [15] = system: large crabgrass (Digitaria sanguinalis, DIGSA); experiment: as above; conditions: post-emerge, 14 days after application, rating scale 0-100
# Source text: as §1, §2, §3, §4, §5
# [16] = system: redroot pigweed (Amaranthus retroflexus, AMARE); experiment: as above; conditions: post-emerge, 14 days after application
# Source text: as §1, §2, §3, §4, §5
# [17] = system: sicklepod (Cassia obtusifolia, CASOB); experiment: as above; conditions: post-emerge, 14 days after application, rating scale 0-100
# Source text: as §1, §2, §3, §4, §5
# [18] = system: velvetleaf (Abutilon theophrasti, ABUTH); experiment: as above; conditions: post-emerge, 14 days after application, rating scale 0-100
# Source text: as §1, §2, §3, §4, §5
# [19] = system: field corn (Zea mays L., var. Dekalb 535, CORN); experiment: Post-emerge test, crop safety; conditions: post-emerge, 14 days after application, rating scale 0-100
# Source text: as §1, §2, §3, §4, §5
# [20] = system: upland rice (Oryza sp., var. Tebonnet, RICE); experiment: Post-emerge test, crop safety; conditions: post-emerge, 14 days after application, rating scale 0-100
# Source text: as §1, §2, §3, §4, §5
# [21] = 250 g ai/ha, rating scale 0-100
structure (smiles),measurement,setting,value
COc1c(Cl)cc(F)c(-n2c(=O)cc(C(F)(F)F)n(C)c2=O)c1NC(=O)OCc1cc(C)ccc1C [4-38],Pre-emerge Herbicidal Activity AMARE,[1]; 63 g ai/ha,100
same,Pre-emerge Herbicidal Activity AMARE,[1]; 250 g ai/ha,100
same,Pre-emerge Herbicidal Activity ECHCG,[2]; 63 g ai/ha,30
same,Pre-emerge Herbicidal Activity ECHCG,[2]; 250 g ai/ha,60
same,Pre-emerge Herbicidal Activity SETVI,[3]; 63 g ai/ha,100
same,Pre-emerge Herbicidal Activity SETVI,[3]; 250 g ai/ha,100
same,Pre-emerge Herbicidal Activity IPOHE,[4]; 63 g ai/ha,60
same,Pre-emerge Herbicidal Activity IPOHE,[4]; 250 g ai/ha,50
same,Pre-emerge Herbicidal Activity CHEAL,[5]; 63 g ai/ha,100
same,Pre-emerge Herbicidal Activity CHEAL,[5]; 250 g ai/ha,100
same,Pre-emerge Herbicidal Activity DIGSA,[6]; 63 g ai/ha,95
same,Pre-emerge Herbicidal Activity DIGSA,[6]; 250 g ai/ha,100
same,Pre-emerge Herbicidal Activity CASOB,[7]; 63 g ai/ha,30
same,Pre-emerge Herbicidal Activity CASOB,[7]; 250 g ai/ha,60
same,Pre-emerge Herbicidal Activity ABUTH,[8]; 63 g ai/ha,80
same,Pre-emerge Herbicidal Activity ABUTH,[8]; 250 g ai/ha,100
same,Pre-emerge Herbicidal Activity CORN,[9]; 63 g ai/ha,10
same,Pre-emerge Herbicidal Activity CORN,[9]; 250 g ai/ha,20
same,Pre-emerge Herbicidal Activity RICE,[10]; 63 g ai/ha,35
same,Pre-emerge Herbicidal Activity RICE,[10]; 250 g ai/ha,60
same,phytotoxicity rating ECHCG,[11]; 63 g ai/ha,50
same,phytotoxicity rating ECHCG,[11]; 250 g ai/ha,50
same,phytotoxicity rating SETVI,[12]; 63 g ai/ha,60
same,phytotoxicity rating SETVI,[12]; 250 g ai/ha,80
same,phytotoxicity rating IPOHE,[13]; 63 g ai/ha,100
same,phytotoxicity rating IPOHE,[13]; 250 g ai/ha,100
same,phytotoxicity rating CHEAL,[14]; 63 g ai/ha,100
same,phytotoxicity rating CHEAL,[14]; 250 g ai/ha,100
same,phytotoxicity rating DIGSA,[15]; 63 g ai/ha,40
same,phytotoxicity rating DIGSA,[15]; 250 g ai/ha,40
same,phytotoxicity rating AMARE,"[16]; 63 g ai/ha, rating scale 0-100 (0 no damage, 100 complete death)",100
same,phytotoxicity rating AMARE,[16]; [21],100
same,phytotoxicity rating CASOB,[17]; 63 g ai/ha,90
same,phytotoxicity rating CASOB,[17]; 250 g ai/ha,100
same,phytotoxicity rating ABUTH,[18]; 63 g ai/ha,100
same,phytotoxicity rating ABUTH,[18]; 250 g ai/ha,100
same,phytotoxicity rating CORN (crop damage),[19]; 63 g ai/ha,40
same,phytotoxicity rating CORN (crop damage),[19]; 250 g ai/ha,85
same,phytotoxicity rating RICE (crop damage),[20]; 63 g ai/ha,35
same,phytotoxicity rating RICE (crop damage),[20]; 250 g ai/ha,50
COc1c(Cl)cc(F)c(-n2c(=O)cc(C(F)(F)F)n(N)c2=O)c1NC(=O)COCc1ccccc1 [2-187],phytotoxicity rating AMARE,[1]; 63 g ai/ha,100
same,phytotoxicity rating AMARE,[1]; 250 g ai/ha,100
same,phytotoxicity rating ECHCG,[2]; 63 g ai/ha,20
same,phytotoxicity rating ECHCG,[2]; 250 g ai/ha,60
same,phytotoxicity rating SETVI,[3]; 63 g ai/ha,50
same,phytotoxicity rating SETVI,[3]; 250 g ai/ha,100
same,phytotoxicity rating IPOHE,[4]; 63 g ai/ha,75
same,phytotoxicity rating IPOHE,[4]; 250 g ai/ha,100
same,phytotoxicity rating CHEAL,[5]; 63 g ai/ha,100
same,phytotoxicity rating CHEAL,[5]; 250 g ai/ha,100
same,phytotoxicity rating DIGSA,[6]; 63 g ai/ha,90
same,phytotoxicity rating DIGSA,[6]; 250 g ai/ha,100
same,phytotoxicity rating CASOB,[7]; 63 g ai/ha,60
same,phytotoxicity rating CASOB,[7]; 250 g ai/ha,100
same,phytotoxicity rating ABUTH,[8]; 63 g ai/ha,100
same,phytotoxicity rating ABUTH,[8]; 250 g ai/ha,100
same,phytotoxicity rating CORN (crop damage),[9]; 63 g ai/ha,0
same,phytotoxicity rating CORN (crop damage),[9]; 250 g ai/ha,90
same,phytotoxicity rating RICE (crop damage),[10]; 63 g ai/ha,40
same,phytotoxicity rating RICE (crop damage),[10]; 250 g ai/ha,90
same,ECHCG phytotoxicity rating,[11]; 63 g ai/ha,20
same,ECHCG phytotoxicity rating,[11]; 250 g ai/ha,40
same,SETVI phytotoxicity rating,[12]; 63 g ai/ha,40
same,SETVI phytotoxicity rating,[12]; 250 g ai/ha,60
same,IPOHE phytotoxicity rating,[13]; 63 g ai/ha,100
same,IPOHE phytotoxicity rating,[13]; 250 g ai/ha,100
same,CHEAL phytotoxicity rating,[14]; 63 g ai/ha,100
same,CHEAL phytotoxicity rating,[14]; 250 g ai/ha,100
same,DIGSA phytotoxicity rating,[15]; 63 g ai/ha,10
same,DIGSA phytotoxicity rating,[15]; 250 g ai/ha,40
same,AMARE phytotoxicity rating,"[16]; 63 g ai/ha, rating scale 0-100",99
same,AMARE phytotoxicity rating,[16]; [21],100
same,CASOB phytotoxicity rating,[17]; 63 g ai/ha,70
same,CASOB phytotoxicity rating,[17]; 250 g ai/ha,100
same,ABUTH phytotoxicity rating,[18]; 63 g ai/ha,100
same,ABUTH phytotoxicity rating,[18]; 250 g ai/ha,100
same,CORN phytotoxicity rating (crop damage),[19]; 63 g ai/ha,15
same,CORN phytotoxicity rating (crop damage),[19]; 250 g ai/ha,75
same,RICE phytotoxicity rating (crop damage),[20]; 63 g ai/ha,50
same,RICE phytotoxicity rating (crop damage),[20]; 250 g ai/ha,90
